Peptide text beside a SMILES is read from it. * marks the point of attachment. Cbz = O=C(OCc1ccccc1)*
Experiments:
U118 glioma cells = assay: Warburg effect: Western blot of AMPK phosphorylation, mTOR activity and ECT2 expression; assay type: cell-based, human
Protocol: Western blot analysis. Whole cell lysates were prepared at the indicated time points following treatment. Cells were lysed in 0.1% SDS buffer (50 mM Tris-HCl, pH7.5, 150 mM NaCl, 1% NP-40, 1% sodium deoxycholate, 0.1 mM sodium vanadate, 50 mM b-glycerophosphate, 1 mM NaF) supplemented with protease inhibitor cocktail (Roche, Basel, Switzerland). Lysates were clarified by centrifugation at 13,000 rpm for 20 min at 4° C. Protein quantity was determined by the Bradford Assay Reagent (Bio-Rad). Typically, 50 μg of protein was resolved on either 6% or 12% SDS-polyacrylamide and transferred onto PVDF membranes (Millipore, Billerica, Mass.). Membranes were probed using antibodies specific to Ect2 and other proteins listed in the attached document. Protein bands were visualized by chemiluminescence using the ECL Western blotting system (Amersham, Arlington Heights, Ill.) according to manufacturer's protocol. Actin was used as loading control.
The use of ECT2 inhibitor sensitizes glioma cell stochemotherapy treatment such as with Temozolomide (FIG. 14). ECT2 regulation by RTK/mTOR pathway through EGFR inhibition (FIG. 18) with Erlotinib (10 uM) (FIG. 18A), Akt inhibition with API2 (10 uM), and mTOR inhibition with Rapamycin (50 nM) (FIG. 18B) Warburg effect and ECT2 regulation was examined in U118 glioma cells. The cells were treated with glycolysis or oxidative phosphorylation inhibitors [2-Deoxy-glucose (2DG) and oligomycin, respectively]. Filipin III was used to permeabilise mitochondria to provide exogenous source of pyruvate for the Tricarboxylic acid (TCA) cycle. Cellular energy level was measured by Western blot analysis of AMPK phosphorylation.

p27^Kip1 = assay: Western blot of p27^Kip1 protein; assay type: cell-based, human; details: MG132 100 nM added to cells over-expressing Ect2
Protocol: Cell Culture and Transfection. A172, U87, U118, U373 and T98G human glioma cells (ATCC, Manassas, Va.) were cultured in Dulbecco's modified Eagle's medium (DMEM) supplemented with 10% fetal bovine serum (Hyclone, South Logan, Utah). Cells were synchronised at quiescence through serum starvation. Full-length human Ect2 was cloned into the expression vector pXJ41 using EcoRI and BamHI digestion. The Ect2 truncation mutants ΔN-Ect2-DH/PH/C, ΔN-Ect2-DH/PH and ΔN-Ect2-DH were cloned in pCTV3-HA3. p27-PF, p27-ApaI, pGVB2 were gifts. For transient expression, cells were seeded at 40% confluence and transfected with 1.5 μg of DNA using Polyfect transfection reagent (Qiagen GmBH, Hilden, Germany). For knockdown experiments, Ect2 siRNAs were transfected into cells using SilentFect (Bio-Rad, Hercules, Calif.). RhoA inhibitor C3 exoenzyme (Upstate Biotech, Billerica, Mass.) was introduced into cells using Lipofectamine2000 (Invitrogen, Carlsbad, Calif.) at a concentration of 10 mg/ml. Cells were treated with the proteasome inhibitor MG132 (Calbiochem, San Diego, Calif.) at a concentration of 100 nM.
Western blot analysis. Whole cell lysates were prepared at the indicated time points following treatment. […] Protein quantity was determined by the Bradford Assay Reagent (Bio-Rad). […]

Row | Compound | ECT2 expression (U118 glioma cells) | mTOR activity (U118 glioma cells) | Ect2-mediated suppression of p27^Kip1 (p27^Kip1) | phosphorylated AMPK (U118 glioma cells; glycolysis inhibition)
1 | CC[C@H]1/C=C/C=C/C[C@@H](C)[C@H](O)[C@@](C)(O)C(=O)[C@@H](C)[C@H](O)[C@@H](C)C(=O)[C@@H](C)[C@H](O)[C@@H](C)/C=C/C(=O)O[C@@H]2[C@H](C)[C@H](CC1)O[C@]1(CC[C@H](C)[C@H](C[C@@H](C)O)O1)[C@H]2C [oligomycin] | did not affect | did not affect |  | 
2 | CC(C)C[C@@H](C=O)NC(=O)[C@H](CC(C)C)NC(=O)[C@H](CC(C)C)NC(=O)OCc1ccccc1 [MG132] (Cbz-Leu-Leu-Leu-aldehyde) |  |  | completely abrogated | 
3 | O=CC[C@@H](O)[C@H](O)[C@H](O)CO [2DG, 2-Deoxy-D-glucose] | reduced | significantly lower |  | higher level
